Laboratory results as given in PMC5654082 (Malaria Journal, 2017).
Where a name gives a salt, the structure may show the parent alone. Read-outs that look alike come from different tables or passages of the source. Marks after values point to notes of the source that are not given here.

Columns and labels:
[1] = Thai children with uncomplicated multidrug-resistant falciparum malaria; (geometric) mean or median; cited from earlier work
[2] = biological target: MATE2-K (Homo sapiens, UniProt Q86VL8); assay: Export assay in HEK293 cells co-transduced with OCT1 and MATE2-K; type: cell-based; design: host or cells: HEK293, baculovirus transduction (CMV promoter), transient; co-transduced with human OCT1 in the export assay
Procedure: HEK293 cells were modified to transiently express (a combination of) human OCT1, OCT2, MATE1, MATE2-K, or eYFP. Briefly, cDNA of the respective genes was cloned downstream of a CMV promoter into a baculovirus, of which passage three was used to transduce HEK293 cells. These cells were seeded in poly-D-lysine coated 24- or 96-wells plates and grown in a 37 °C incubator at 5% CO2. Growth was initiated at ~ 25% confluency using 375 or 125 μL cell and complete medium (DMEM + GlutaMAX™-I supplemented with 10% fetal bovine serum) suspension per well, respectively. After 24 h, cells were transduced with 30 µL virus (10 µL virus + 20 µL complete medium in case of 96-wells plates) or 2 × 15 µL virus for cells that required simultaneous expression of two transporters. Finally, 195 µL sodium butyrate (45 µL for 96-wells plates) was added to a final concentration of 2 mM to enhance protein expression.
Import and export of PG and cycloguanil (CG) was assessed by single and double transduced HEK293 cells. In short, HEK293 cells seeded in 24-wells plates as described, were transduced separately with eYFP, OCT1, OCT2, MATE1 or MATE2-K, or with combinations of these viruses. Following the same procedure as for the cellular import assay described above, the import of 100 µM PG and CG was measured after 5 min incubation and data was plotted as mean pmol/mg/min ± SEM. For export (following OCT1 uptake) of 1 µM PG after 1 min of transport at pH 7.4, percentage of remaining cellular PG (compared to background) was plotted as mean ± SEM in GraphPad version 5.03. Significant reduction in uptake (i.e. export by MATEs) was determined using ln transformation and a one-way repeated measures ANOVA with Dunnet’s post test.
Anti-malarial concentration in the cell lysates was quantified using an LC–MS/MS system consisting of a UPLC, a binary solvent manager, a vacuum degasser and an autosampler, coupled to a Xevo TQ-S micro triple quadrupole mass spectrometer. Liquid chromatographic separation of the samples (stored at 10 °C; injection volume of 10 µL) was performed at 40 °C using a HSS T3 analytical column (1.8 μm; 100 × 2.1 mm) coupled to a VanGuard HSS T3 pre-column (1.8 µm; 5 × 2.1 mm). […] Positive ion mode was used with selected reaction monitoring (SRM) for the quantitative analysis of AMO, ART, ATO, CQ, CG, DHA, LUM, MQ, PQ, PG, and QN. The peak area of the most abundant product ion was used for quantification.

[3] = co-administration of EFV; cited from earlier work
[4] = Maximum plasma concentration from in vivo pharmacokinetic studies after therapeutic dosing; conditions: human, the literature Cmax (ng/mL) of Table 2 expressed in µM
Source text: As Cmax the (geometric) mean or median maximum plasma concentrations obtained from previous in vivo pharmacokinetic studies after therapeutic dosing was used.

Sequence of MATE2-K (Q86VL8 1-566 isoform Q86VL8-3): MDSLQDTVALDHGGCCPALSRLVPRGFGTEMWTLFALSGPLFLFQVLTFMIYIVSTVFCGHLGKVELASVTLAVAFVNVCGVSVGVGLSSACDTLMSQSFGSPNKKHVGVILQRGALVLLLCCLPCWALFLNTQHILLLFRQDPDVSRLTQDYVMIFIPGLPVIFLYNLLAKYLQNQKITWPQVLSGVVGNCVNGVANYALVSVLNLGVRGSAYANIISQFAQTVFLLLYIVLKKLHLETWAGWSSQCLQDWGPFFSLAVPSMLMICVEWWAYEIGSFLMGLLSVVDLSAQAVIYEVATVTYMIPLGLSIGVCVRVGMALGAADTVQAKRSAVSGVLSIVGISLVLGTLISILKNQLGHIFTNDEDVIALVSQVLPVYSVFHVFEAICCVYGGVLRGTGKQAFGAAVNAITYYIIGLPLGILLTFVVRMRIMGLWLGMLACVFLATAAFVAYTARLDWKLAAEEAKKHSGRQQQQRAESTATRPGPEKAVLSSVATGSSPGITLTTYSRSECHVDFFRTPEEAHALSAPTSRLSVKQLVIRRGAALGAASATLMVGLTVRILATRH

In the case of `[H]/N=C(\N/C(=N/[H])Nc1ccc(Cl)cc1)NC(C)C` [Proguanil, proguanil hydrochloride], the Cmax [1] is given as 306^d [47] ng/mL, the “Intracellular concentration, percentage of its initial value” ([2]; MATE2-K co-transduced with OCT1) is given as 56% and the “Relative decrease in uptake by MATE2-K” value ([2]; OCT1/MATE2-K versus eYFP/OCT1 cells, 1 µM, 1 min) is given as 44%. For the same compound, the “Uptake, percentage of eYFP control cells” value ([2]; cells expressing OCT1 and MATE2-K, 1 µM, 1 min, pH 7.4) was 470 ± 80%, the “Fraction exported by MATE2-K” value ([2]; compared to eYFP/OCT1 transduced cells, 1 µM, 1 min) was “approximately 50%” and the “Increase of Cmax of PG by EFV” value [3] was 47%. For the same compound, the Cmax [4] was 1.2 µM.
